Measured values as given in the supplement of paper PMC10307832.

Assays:
Test in all cases: relative viability (nuclei count vs DMSO), 5 days (fraction); higher = more cells survive
NCI-H1792 = test system: NCI-H1792
Procedure, shortened: (§1)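 Relative viability is defined as nuclei in treated wells over nuclei in vehicle wells. Duplicate plates were run and medians reported. Lung cancer cell lines in 1536-well plates were dosed by pin tool one day after seeding, with one drug or with a fixed anchor-drug dose plus five library-drug doses (not always all listed) in √10 steps, and nuclei were counted after 5 days.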

LXF-289 = test system: LXF-289
Procedure, shortened: as §1

NCI-H1355 = test system: NCI-H1355
Procedure, shortened: as §1

NCI-H727 = test system: NCI-H727
Procedure, shortened: as §1

SW 900 = test system: SW 900
Procedure, shortened: as §1

NCI-H596 = test system: NCI-H596
Procedure, shortened: as §1

NCI-H661 = test system: NCI-H661
Procedure, shortened: as §1

NCI-H441 = test system: NCI-H441
Procedure, shortened: as §1

LCLC-103H = test system: LCLC-103H
Procedure, shortened: as §1

PC-14 = test system: PC-14
Procedure, shortened: as §1

NCI-H460 = test system: NCI-H460
Procedure, shortened: as §1

SK-MES-1 = test system: SK-MES-1
Procedure, shortened: as §1

Question: Which results are given for NC(=O)Nc1cc(-c2cccc(F)c2)sc1C(=O)N[C@H]1CCCNC1 [AZD7762] + N=C(N)NC(=N)NCCc1ccccc1 [Phenformin] (partner 250 µM)?
Answer: relative viability (NCI-H1792; first compound 0.01 µM): 0.412; relative viability (NCI-H1792; first compound 0.03162 µM): 0.26; relative viability (NCI-H1792; first compound 0.1 µM): 0.442; relative viability (NCI-H1792; first compound 0.3162 µM): 0.736; relative viability (NCI-H1792; first compound 1 µM): 0.258; relative viability (LXF-289; first compound 0.01 µM): 0.49; relative viability (LXF-289; first compound 0.03162 µM): 0.54; relative viability (LXF-289; first compound 0.1 µM): 0.508; relative viability (LXF-289; first compound 0.3162 µM): 0.445; relative viability (LXF-289; first compound 1 µM): 0.526; relative viability (NCI-H1355; first compound 0.01 µM): 0.403; relative viability (NCI-H1355; first compound 0.03162 µM): 0.501; relative viability (NCI-H1355; first compound 0.1 µM): 0.456; relative viability (NCI-H1355; first compound 0.3162 µM): 0.49; relative viability (NCI-H1355; first compound 1 µM): 0.444; relative viability (NCI-H727; first compound 0.01 µM): 0.465; relative viability (NCI-H727; first compound 0.03162 µM): 0.548; relative viability (NCI-H727; first compound 0.1 µM): 0.439; relative viability (NCI-H727; first compound 0.3162 µM): 0.398; relative viability (NCI-H727; first compound 1 µM): 0.262; relative viability (SW 900; first compound 0.01 µM): 0.777; relative viability (SW 900; first compound 0.03162 µM): 0.746; relative viability (SW 900; first compound 0.1 µM): 0.65; relative viability (SW 900; first compound 0.3162 µM): 0.579; relative viability (SW 900; first compound 1 µM): 0.29; relative viability (NCI-H596; first compound 0.01 µM): 0.701; relative viability (NCI-H596; first compound 0.03162 µM): 0.836; relative viability (NCI-H596; first compound 0.1 µM): 0.641; relative viability (NCI-H596; first compound 0.3162 µM): 0.809; relative viability (NCI-H596; first compound 1 µM): 0.673; relative viability (NCI-H661; first compound 0.01 µM): 0.272; relative viability (NCI-H661; first compound 0.03162 µM): 0.269; relative viability (NCI-H661; first compound 0.1 µM): 0.232; relative viability (NCI-H661; first compound 0.3162 µM): 0.265; relative viability (NCI-H661; first compound 1 µM): 0.262; relative viability (NCI-H441; first compound 0.01 µM): 1.05; relative viability (NCI-H441; first compound 0.03162 µM): 0.732; relative viability (NCI-H441; first compound 0.1 µM): 0.91; relative viability (NCI-H441; first compound 0.3162 µM): 1.04; relative viability (NCI-H441; first compound 1 µM): 0.618; relative viability (LCLC-103H; first compound 0.01 µM): 0.376; relative viability (LCLC-103H; first compound 0.03162 µM): 0.35; relative viability (LCLC-103H; first compound 0.1 µM): 0.352; relative viability (LCLC-103H; first compound 0.3162 µM): 0.312; relative viability (LCLC-103H; first compound 1 µM): 0.339; relative viability (PC-14; first compound 0.01 µM): 0.652; relative viability (PC-14; first compound 0.03162 µM): 0.611; relative viability (PC-14; first compound 0.1 µM): 0.459; relative viability (PC-14; first compound 0.3162 µM): 0.305; relative viability (PC-14; first compound 1 µM): 0.213; relative viability (NCI-H460; first compound 0.01 µM): 0.542; relative viability (NCI-H460; first compound 0.03162 µM): 0.468; relative viability (NCI-H460; first compound 0.1 µM): 0.467; relative viability (NCI-H460; first compound 0.3162 µM): 0.253; relative viability (NCI-H460; first compound 1 µM): 0.0452; relative viability (SK-MES-1; first compound 0.01 µM): 0.699; relative viability (SK-MES-1; first compound 0.03162 µM): 0.663
